The results in this text go back to patent US12187727B2, “Methods for antagonizing a melanocortin 4 receptor” (Pfizer Inc., priority 2020, dated 2025).

Experiment [1] deals with hMC4R (Homo sapiens (Human), UniProt P32245). The experiment in a line: In vitro binding affinity assay using hMC4R (radioligand competition binding, [125I]-(Nle4, D-Phe7)-α-MSH). The conditions noted are these: geometric mean, read-out: Ki (nM) geometric mean.
In experiment [2] the target is human Melanocortin-4 receptor (MC4R) (Homo sapiens (Human), UniProt P32245). The experiment in a line: Functional in vitro MC4R antagonist potency assay (cAMP HTRF in CHO cells). Type of experiment: cell-based. The conditions noted are these: read-out: Kb (nM) Antagonist geometric mean. Put shortly:
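CHO cells stably expressing human MC4R were preincubated 30 min at 37 °C with compound ([…], 0.1% DMSO), then stimulated 30 min with EC80 αMSH (200 nM). Intracellular cAMP quantified by HTRF competitive immunoassay and normalized to agonist-stimulated and vehicle-only wells.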

Chain of hMC4R (P32245 whole entry): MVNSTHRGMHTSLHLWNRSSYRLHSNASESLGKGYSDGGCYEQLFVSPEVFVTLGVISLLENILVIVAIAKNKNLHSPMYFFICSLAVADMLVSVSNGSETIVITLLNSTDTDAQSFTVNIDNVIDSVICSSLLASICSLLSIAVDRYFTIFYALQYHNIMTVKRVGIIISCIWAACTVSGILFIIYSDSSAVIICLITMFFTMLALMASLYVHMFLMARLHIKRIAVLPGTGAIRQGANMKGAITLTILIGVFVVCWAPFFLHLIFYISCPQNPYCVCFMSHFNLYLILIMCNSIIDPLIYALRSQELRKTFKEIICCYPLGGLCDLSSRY
Chain of human Melanocortin-4 receptor (MC4R) (P32245 whole entry): as above

`COc1cc([C@@H](C)C(=O)N2CC[C@@]3(CCc4ccc(C)nc4N3)C2)nc(C)n1` (single isomer, unassigned) [Example 25, 2-(6-methoxy-2-methylpyrimidin-4-yl)-1-(7-methyl-3,4-dihydro-1H-spiro[1,8-naphthyridine-2,3′-pyrrolidin]-1′-yl)propan-1-one]: in experiment [1], the Ki is 220 nM. The Kb in experiment [2] was more than 97 nM.

For the molecule `COc1cc([C@@H](C)C(=O)N2CC[C@@]3(CCc4ccc(C)nc4N3)C2)nc(C)n1` (single isomer, unassigned) [Example 26, 2-(6-methoxy-2-methylpyrimidin-4-yl)-1-(7-methyl-3,4-dihydro-1H-spiro[1,8-naphthyridine-2,3′-pyrrolidin]-1′-yl)propan-1-one], the Ki in experiment [1] stood at 210 nM. The Kb in experiment [2] is more than 97 nM.

As for `Cc1nc2c(cc1-c1ncccn1)CC[C@@]1(CCN(C(=O)[C@H](C)c3ccc(Cl)cc3Cl)C1)N2` (single isomer, unassigned) [Example 34], in experiment [1], the Ki amounted to 0.9 nM. Further, the Kb in experiment [2] was found to be 4.2 nM.

In the case of `Cc1nc2c(cc1-c1ncccn1)CC[C@@]1(CCN(C(=O)[C@H](C)c3ccc(Cl)cc3Cl)C1)N2` (single isomer, unassigned) [Example 35], the Ki in experiment [1] worked out at 82 nM. Besides, the Kb in experiment [2] was more than 95 nM.

With `COc1cc([C@@H](C)C(=O)N2CC[C@@]3(CCc4cc(-c5ncccn5)c(C)nc4N3)C2)c(C(F)F)cn1` (single isomer, unassigned) [Example 36], the inhibitory constant (Ki) in experiment [1] amounted to 0.52 nM. Besides, in experiment [2], the antagonist dissociation constant (Kb) came to 0.19 nM.

As to `Cc1nc2c(cc1-c1ncccn1)CC[C@@]1(CCN(C(=O)[C@H](C)c3cc(C(F)(F)F)ncc3Cl)C1)N2` (single isomer, unassigned) [Example 39], in experiment [1], the Ki came to 4.9 nM. Further, the Kb in experiment [2] is 23 nM.

For `COc1cc([C@@H](C)C(=O)N2CC[C@@]3(CCc4cc(-c5ncccn5)c(C)nc4N3)C2)c(C(F)(F)F)cn1` (single isomer, unassigned) [Example 41], the Ki in experiment [1] amounted to 0.53 nM. In experiment [2], the Kb came to 0.12 nM.

Regarding `Cc1nc(OC(F)F)cc([C@@H](C)C(=O)N2CC[C@@]3(CCc4cc(-c5ncccn5)c(C)nc4N3)C2)n1` (single isomer, unassigned) [Example 45], the inhibition constant (Ki) in experiment [1] is 0.95 nM. Besides, the antagonist dissociation constant (Kb) in experiment [2] came out at 0.76 nM.

On to `Cc1nc2c(cc1-c1ncccn1)CC[C@@]1(CCN(C(=O)[C@H](C)c3ccc(OC(F)(F)F)cc3)C1)N2` (single isomer, unassigned) [Example 48], for which the inhibitory constant (Ki) in experiment [1] worked out at 0.36 nM. Moreover, the antagonist dissociation constant (Kb) in experiment [2] was 1.8 nM.

Consider `Cc1nc2c(cc1-c1ncccn1)CC[C@@]1(CCN(C(=O)[C@H](C)c3ccc(OC(F)(F)F)cc3)C1)N2` (single isomer, unassigned) [Example 49], for which the Ki in experiment [1] is 64 nM. Moreover, the Kb in experiment [2] was more than 95 nM.

In the case of `Cc1nc2c(cc1-c1ncccn1)CC[C@@]1(CCN(C(=O)[C@H](C)c3ccc(F)c(F)c3)C1)N2` (single isomer, unassigned) [Example 51], in experiment [1], the Ki was determined as 120 nM. The Kb in experiment [2] is more than 110 nM.

Consider `Cc1nc2c(cc1-c1ncccn1)CC[C@@]1(CCN(C(=O)[C@H](C)c3cc(F)c(F)cc3F)C1)N2` (single isomer, unassigned) [Example 52], for which the Ki in experiment [1] was found to be 0.68 nM. Moreover, the antagonist dissociation constant (Kb) in experiment [2] was found to be 2.6 nM.

Take `Cc1nc2c(cc1-c1ncccn1)CC[C@@]1(CCN(C(=O)[C@H](C)c3cc(F)c(F)cc3F)C1)N2` (single isomer, unassigned) [Example 53]: the Ki in experiment [1] stood at 54 nM. Besides, the antagonist equilibrium constant (Kb) in experiment [2] is more than 95 nM.

As to `Cc1nc2c(cc1-c1ncccn1)CC[C@@]1(CCN(C(=O)[C@H](C)c3cc(F)c(F)c(F)c3)C1)N2` (single isomer, unassigned) [Example 55], the Ki in experiment [1] came out at 58 nM. In addition, the Kb in experiment [2] is more than 95 nM.

As for `Cc1nc2c(cc1-c1ncccn1)CC[C@@]1(CCN(C(=O)[C@H](C)c3cc(F)c(F)c(F)c3)C1)N2` (single isomer, unassigned) [Example 56], the inhibition constant (Ki) in experiment [1] was found to be 0.51 nM. The antagonist equilibrium constant (Kb) in experiment [2] turned out to be 0.8 nM.
